Here are results for five compounds from ChEMBL document CHEMBL5465560, “Selectivity Literature for EUbOPEN Chemogenomic Library” (2024).

The target in test [1] is T1, Tyrosine-protein kinase JAK3 (Homo sapiens) (UniProt P52333).
T1 sequence (whole entry): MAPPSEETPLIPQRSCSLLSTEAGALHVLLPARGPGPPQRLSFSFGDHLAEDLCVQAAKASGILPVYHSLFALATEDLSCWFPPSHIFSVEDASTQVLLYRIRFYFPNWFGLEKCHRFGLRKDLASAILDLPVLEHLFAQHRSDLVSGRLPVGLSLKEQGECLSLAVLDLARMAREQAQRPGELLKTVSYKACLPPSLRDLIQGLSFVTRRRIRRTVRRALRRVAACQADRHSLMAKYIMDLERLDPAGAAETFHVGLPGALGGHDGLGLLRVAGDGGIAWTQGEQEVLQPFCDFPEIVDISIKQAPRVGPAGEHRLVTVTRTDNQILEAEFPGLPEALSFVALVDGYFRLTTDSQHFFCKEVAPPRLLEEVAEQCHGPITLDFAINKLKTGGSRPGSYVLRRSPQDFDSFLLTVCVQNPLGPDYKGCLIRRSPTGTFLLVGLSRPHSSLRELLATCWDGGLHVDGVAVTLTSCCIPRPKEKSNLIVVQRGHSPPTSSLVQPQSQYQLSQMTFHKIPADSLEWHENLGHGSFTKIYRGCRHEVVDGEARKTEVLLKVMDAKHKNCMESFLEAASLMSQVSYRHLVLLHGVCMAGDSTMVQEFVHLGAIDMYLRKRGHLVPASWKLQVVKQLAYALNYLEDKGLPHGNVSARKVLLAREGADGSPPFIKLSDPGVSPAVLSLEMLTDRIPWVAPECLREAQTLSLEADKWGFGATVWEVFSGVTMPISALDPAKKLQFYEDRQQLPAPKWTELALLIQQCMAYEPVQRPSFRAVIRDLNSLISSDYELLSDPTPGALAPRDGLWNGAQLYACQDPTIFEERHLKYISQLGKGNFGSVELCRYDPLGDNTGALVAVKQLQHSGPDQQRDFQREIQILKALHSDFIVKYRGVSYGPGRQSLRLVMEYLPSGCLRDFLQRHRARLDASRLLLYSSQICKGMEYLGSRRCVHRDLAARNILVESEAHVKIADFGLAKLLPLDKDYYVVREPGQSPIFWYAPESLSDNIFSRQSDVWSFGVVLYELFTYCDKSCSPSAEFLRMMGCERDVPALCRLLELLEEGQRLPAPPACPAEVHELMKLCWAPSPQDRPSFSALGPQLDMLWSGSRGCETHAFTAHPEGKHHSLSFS
Kind of test: Selectivity interaction (SelectScreen profiling (Invitrogen)) EUB0000607a JAK3. The settings on record: at 2 µM.

The target in test [2] is T2, SNF-related serine/threonine-protein kinase (Homo sapiens) (UniProt Q9NRH2).
T2 sequence (whole entry): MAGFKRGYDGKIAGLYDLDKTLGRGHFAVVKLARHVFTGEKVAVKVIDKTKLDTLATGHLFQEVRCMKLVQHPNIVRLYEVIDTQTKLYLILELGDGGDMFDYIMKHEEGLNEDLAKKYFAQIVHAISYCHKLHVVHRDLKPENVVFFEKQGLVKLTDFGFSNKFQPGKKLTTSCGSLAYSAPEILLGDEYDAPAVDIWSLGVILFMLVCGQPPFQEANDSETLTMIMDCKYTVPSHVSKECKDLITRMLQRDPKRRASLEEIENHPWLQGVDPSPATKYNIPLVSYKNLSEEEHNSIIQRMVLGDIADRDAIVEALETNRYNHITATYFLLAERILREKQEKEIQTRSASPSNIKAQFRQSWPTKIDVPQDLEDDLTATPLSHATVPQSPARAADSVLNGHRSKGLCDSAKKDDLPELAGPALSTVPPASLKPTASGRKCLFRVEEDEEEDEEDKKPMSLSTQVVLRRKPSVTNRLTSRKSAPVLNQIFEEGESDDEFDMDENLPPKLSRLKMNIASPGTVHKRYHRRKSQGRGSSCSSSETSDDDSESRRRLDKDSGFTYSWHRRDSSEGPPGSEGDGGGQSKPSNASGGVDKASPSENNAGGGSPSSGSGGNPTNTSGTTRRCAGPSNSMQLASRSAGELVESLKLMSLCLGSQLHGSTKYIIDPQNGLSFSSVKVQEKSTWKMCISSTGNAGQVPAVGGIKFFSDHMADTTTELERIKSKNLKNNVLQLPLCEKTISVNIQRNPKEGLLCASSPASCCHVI
Kind of test: Selectivity interaction (ActivX KiNativ screen (kinase selectivity in THP-1 cell lysates)) EUB0000639a SNRK. The settings on record: lysate. It is filed as subcellular.

In test [3] the target is Wee1-like protein kinase (Homo sapiens) (UniProt P30291). Kind of test: Selectivity interaction (Ambit KINOMEscan and KiNATiv profiling in Jurkat cells) EUB0000090b WEE1. The note with it: at 1 µM. The test is classed as cell-based.
Chain of Wee1-like protein kinase (Homo sapiens) (P30291 whole entry, looked up): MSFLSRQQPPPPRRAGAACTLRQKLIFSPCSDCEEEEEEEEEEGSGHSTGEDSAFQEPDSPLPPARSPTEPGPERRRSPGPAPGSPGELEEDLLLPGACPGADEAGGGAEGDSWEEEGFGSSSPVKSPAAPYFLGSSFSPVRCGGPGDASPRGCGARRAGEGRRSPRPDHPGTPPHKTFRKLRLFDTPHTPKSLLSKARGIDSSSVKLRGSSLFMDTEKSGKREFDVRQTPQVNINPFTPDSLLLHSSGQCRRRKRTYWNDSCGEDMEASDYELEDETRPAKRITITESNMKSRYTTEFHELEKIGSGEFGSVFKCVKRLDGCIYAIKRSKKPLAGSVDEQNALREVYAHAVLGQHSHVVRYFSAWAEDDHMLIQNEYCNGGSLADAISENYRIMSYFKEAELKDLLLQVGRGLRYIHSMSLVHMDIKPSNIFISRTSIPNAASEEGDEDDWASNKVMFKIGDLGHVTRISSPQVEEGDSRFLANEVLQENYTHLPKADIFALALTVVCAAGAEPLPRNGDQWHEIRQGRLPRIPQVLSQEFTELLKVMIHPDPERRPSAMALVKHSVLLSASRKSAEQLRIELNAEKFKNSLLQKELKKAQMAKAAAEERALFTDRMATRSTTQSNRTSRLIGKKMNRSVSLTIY
The target of test [4] is T3, MAP/microtubule affinity-regulating kinase 4 (Homo sapiens) (UniProt Q96L34).
T3 sequence (whole entry): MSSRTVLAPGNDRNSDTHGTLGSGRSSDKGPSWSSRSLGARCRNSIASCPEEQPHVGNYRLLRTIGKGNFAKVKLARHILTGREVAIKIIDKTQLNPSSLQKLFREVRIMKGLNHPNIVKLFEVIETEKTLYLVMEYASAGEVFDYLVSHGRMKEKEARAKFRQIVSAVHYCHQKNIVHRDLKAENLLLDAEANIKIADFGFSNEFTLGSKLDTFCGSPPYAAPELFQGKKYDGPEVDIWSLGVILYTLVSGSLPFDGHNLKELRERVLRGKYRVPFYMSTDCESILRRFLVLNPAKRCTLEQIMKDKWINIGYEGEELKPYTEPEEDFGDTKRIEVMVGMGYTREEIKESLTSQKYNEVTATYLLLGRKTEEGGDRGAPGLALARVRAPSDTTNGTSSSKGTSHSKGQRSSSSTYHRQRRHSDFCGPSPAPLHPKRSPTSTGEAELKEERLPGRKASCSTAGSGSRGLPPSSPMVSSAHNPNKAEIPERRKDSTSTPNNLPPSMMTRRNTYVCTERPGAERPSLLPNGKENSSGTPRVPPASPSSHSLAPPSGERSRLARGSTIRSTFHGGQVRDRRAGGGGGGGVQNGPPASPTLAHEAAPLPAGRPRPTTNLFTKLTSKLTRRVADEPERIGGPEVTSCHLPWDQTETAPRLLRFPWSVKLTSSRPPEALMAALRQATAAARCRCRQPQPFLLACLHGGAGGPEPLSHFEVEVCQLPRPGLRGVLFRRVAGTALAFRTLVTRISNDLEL
Kind of test: Selectivity interaction (KinomeScan (DiscoverX)) EUB0000229b MARK4. The settings on record: at 10 µM.

Test [5] concerns the target Serine/threonine-protein kinase ATR (Homo sapiens) (UniProt Q13535). The experiment in a line: Selectivity interaction (Kinase panel (KiNativ target engagement assay in Jurkat cells)) EUB0001635a ATR. The note with it: at 1 µM. It is filed as cell-based.

The structures appear in SMILES notation.

Chain of Serine/threonine-protein kinase ATR (Homo sapiens) (Q13535 whole entry, looked up): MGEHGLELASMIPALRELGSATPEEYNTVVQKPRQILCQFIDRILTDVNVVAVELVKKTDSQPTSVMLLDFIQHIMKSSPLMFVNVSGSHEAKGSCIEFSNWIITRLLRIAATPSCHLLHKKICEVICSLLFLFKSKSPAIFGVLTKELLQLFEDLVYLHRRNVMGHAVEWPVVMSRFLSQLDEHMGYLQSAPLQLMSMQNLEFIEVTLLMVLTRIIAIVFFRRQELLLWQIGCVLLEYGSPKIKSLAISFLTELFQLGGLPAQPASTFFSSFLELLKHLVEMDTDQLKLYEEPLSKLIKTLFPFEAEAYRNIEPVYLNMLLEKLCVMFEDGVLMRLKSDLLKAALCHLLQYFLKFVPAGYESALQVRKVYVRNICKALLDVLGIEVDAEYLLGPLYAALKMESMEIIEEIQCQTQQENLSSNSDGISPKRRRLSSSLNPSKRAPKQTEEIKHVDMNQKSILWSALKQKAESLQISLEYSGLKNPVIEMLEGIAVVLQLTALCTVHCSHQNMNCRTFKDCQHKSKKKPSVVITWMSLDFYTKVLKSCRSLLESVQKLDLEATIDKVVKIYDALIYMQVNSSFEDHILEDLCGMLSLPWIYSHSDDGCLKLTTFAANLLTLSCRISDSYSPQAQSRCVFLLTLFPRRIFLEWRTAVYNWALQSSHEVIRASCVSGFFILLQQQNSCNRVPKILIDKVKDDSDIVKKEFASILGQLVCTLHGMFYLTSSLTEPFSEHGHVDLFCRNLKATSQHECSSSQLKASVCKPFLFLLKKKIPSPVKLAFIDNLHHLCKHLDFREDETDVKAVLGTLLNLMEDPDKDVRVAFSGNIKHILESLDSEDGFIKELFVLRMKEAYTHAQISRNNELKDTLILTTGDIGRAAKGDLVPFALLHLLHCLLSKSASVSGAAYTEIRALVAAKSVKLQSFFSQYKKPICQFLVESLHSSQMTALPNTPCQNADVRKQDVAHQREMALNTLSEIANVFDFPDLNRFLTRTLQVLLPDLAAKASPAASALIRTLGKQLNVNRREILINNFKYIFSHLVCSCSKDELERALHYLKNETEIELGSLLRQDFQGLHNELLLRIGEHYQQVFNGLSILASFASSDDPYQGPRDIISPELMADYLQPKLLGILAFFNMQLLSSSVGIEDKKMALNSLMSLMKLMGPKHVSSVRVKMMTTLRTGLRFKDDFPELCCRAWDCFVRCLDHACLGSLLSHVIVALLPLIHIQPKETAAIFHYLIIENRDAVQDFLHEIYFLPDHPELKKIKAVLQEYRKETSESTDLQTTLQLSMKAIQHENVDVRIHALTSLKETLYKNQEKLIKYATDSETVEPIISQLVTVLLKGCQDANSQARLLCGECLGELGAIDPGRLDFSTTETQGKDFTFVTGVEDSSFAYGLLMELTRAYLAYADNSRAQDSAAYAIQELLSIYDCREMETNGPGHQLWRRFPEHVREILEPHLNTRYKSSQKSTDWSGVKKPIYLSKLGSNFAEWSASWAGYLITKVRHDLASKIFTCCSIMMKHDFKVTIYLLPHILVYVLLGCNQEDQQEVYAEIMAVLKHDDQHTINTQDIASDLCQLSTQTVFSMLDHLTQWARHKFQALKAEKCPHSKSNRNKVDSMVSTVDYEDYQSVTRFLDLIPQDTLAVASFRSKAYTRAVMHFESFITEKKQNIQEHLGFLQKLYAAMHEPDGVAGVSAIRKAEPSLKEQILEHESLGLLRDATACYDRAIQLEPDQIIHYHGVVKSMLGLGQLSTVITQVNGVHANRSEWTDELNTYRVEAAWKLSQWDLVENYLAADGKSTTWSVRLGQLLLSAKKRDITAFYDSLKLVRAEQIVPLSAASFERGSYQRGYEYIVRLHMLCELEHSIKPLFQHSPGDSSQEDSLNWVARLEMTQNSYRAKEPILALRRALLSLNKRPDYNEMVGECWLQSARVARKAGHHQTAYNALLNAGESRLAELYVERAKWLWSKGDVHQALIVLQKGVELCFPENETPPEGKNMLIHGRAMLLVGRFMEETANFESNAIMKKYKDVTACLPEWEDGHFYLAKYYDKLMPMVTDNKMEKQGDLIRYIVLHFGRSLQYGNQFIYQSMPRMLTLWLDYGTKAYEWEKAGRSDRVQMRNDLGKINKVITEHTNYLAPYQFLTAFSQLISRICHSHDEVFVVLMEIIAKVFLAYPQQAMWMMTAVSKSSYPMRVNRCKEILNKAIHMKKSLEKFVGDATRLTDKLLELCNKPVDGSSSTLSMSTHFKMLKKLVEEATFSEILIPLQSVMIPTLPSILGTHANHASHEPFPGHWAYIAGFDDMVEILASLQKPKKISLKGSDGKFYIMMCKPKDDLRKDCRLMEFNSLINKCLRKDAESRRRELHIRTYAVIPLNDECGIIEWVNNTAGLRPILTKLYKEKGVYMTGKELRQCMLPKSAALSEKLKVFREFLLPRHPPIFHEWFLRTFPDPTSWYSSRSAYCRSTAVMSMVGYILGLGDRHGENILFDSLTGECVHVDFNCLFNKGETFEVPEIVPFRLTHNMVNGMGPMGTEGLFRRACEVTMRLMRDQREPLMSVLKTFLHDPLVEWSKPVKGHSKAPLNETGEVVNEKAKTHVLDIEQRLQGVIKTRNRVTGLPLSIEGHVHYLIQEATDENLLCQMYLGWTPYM

`CNC(=O)Nc1ccc(-c2nc(N3CC4CCC(C3)O4)c3cnn(C4CCC5(CC4)OCCO5)c3n2)cc1`: the % of inhibition in test [1] worked out at 0%.
As for `CC[C@@H]1[C@H](F)C(=O)N[C@@H]1COc1nccc2cc(C(N)=O)c(OC)cc12` [ZIMLOVISERTIB], the % of inhibition is -4.2% in test [2] (at 0.01 µM); 1.9% in test [2] (at 0.04 µM); 21.5% in test [2] (at 0.2 µM); 3.6% in test [2] (at 1 µM); 23.9% in test [2] (at 5 µM).
Compound `CN(C)C/C=C/C(=O)Nc1ccc(C(=O)N2CCCC(Nc3ncc(Cl)c(-c4c[nH]c5ccccc45)n3)C2)cc1` (centres undefined) registered a % of control in test [3] of 77%.
With `COc1cc(N(C)c2ccnc3ccc(C(F)(F)F)cc23)cc(OC)c1OC`, the % binding in test [4] is 87%.
In the case of `C=CC(=O)Nc1ccc(C(=O)Nc2[nH]nc3c2CN(C(=O)N[C@H](CN(C)C)c2ccccc2)C3(C)C)cc1`, in test [5], the % of engagement is -11.3%.
